The results in this text go back to patent publication US20100029615A1, “BENZIMIDAZOLE DERIVATIVES” (priority 2006, published 2010).

One may read the inhibition as the change of the read-out against control, counted positive when it falls.

Structures can show the parent of a compound that is named as a salt. Where two headings read alike, the source gives them in different places.

In the experiment the target is T1, SMO (Mus musculus, UniProt P56726).
T1 construct: endogenous in cells; host or cells: C3H10T1/2 (ATCC #CCL-226)
T1 sequence (P56726 33-793): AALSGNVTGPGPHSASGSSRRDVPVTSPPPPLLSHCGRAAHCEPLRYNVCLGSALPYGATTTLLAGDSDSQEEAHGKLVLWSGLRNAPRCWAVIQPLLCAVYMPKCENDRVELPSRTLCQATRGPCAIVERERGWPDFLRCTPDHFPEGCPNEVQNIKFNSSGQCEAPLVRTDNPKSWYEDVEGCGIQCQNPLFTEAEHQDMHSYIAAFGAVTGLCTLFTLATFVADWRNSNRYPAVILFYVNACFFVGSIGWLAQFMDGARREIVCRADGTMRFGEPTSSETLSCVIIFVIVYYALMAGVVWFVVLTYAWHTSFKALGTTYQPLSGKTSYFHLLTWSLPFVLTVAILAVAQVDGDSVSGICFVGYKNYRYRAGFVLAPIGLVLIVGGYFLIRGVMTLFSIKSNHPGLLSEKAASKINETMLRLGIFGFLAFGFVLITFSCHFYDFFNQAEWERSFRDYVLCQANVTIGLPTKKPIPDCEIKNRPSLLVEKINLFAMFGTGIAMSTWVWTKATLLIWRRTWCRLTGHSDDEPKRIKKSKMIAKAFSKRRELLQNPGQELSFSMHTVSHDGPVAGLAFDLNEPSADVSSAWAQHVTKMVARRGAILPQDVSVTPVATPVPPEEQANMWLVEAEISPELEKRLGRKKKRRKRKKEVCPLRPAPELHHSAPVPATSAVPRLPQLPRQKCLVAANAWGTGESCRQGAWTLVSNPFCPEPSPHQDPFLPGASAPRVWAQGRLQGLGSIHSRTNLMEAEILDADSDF
In words: Smoothened (SMO)/Sonic Hedgehog (SHh) Transient Transcriptional Activation Assay (Gli-luciferase reporter in C3H10T1/2 cells). It counts as cell-based, murine. The conditions noted are these: SHh 250 ng/ml, 20 hrs. As to the method: As noted above, the compounds of the invention are useful as inhibitors of SMO. Methods for determining the in vitro activity of these compounds are described below: Smoothened (SMO)/Sonic Hedgehog (SHh) Transient Transcriptional Activation Assay
On Day 1,2×10^6 C3H10T1/2 cells (ATCC #CCL-226) were split and seeded in 12 mls of growth medium Basal Medium Eagle (BME, Invitrogen #21010-046) supplemented with 2 mM L-glutamine (Invitrogen #25030-081), 0.1 units/ml penicillin and 0.1 ug/ml streptomycin (Invitrogen #15140-122), and 10% Fetal Bovine Serum (FBS, Invitrogen #16140-071) in a T-75 flask (Costar #3376). They were allowed to attach for 4 hours at 37° C., 5% CO2. The cells were then transfected using Fugene 6 (Roch #11 814 443 001) in the following reaction: 48 ul Fugene 6 and 745 ul Opti-MEM (Invitrogen #31985-070) were mixed and allowed to sit at room temperature for 5 minutes. 8 ug of pGL4.14/mGli(CS) DNA (10× murine Gli response elements and minimal CS promoter) and 0.5 ug of pEGFP DNA (Clontech) were added, gently mixed and incubated at room temperature for 20 minutes. This entire transfection mix was then added to the T-75 flask containing the cells. The cells were incubated at 37 °C, 5% C02 for 18-24 hrs.
On Day 2, the transfected cells were trypsinized and seeded into white 96 well plates (Costar #3917) in 100ul/well of growth medium at a concentration of 20,000 cells/well. The cells were allowed to recover for 4 hrs before adding serum starvation medium Dulbecco's Modified Eagle Medium (DMEM, Invitrogen #21063-029) supplemented with 2 mM L-glutamine, 0.1 units/ml penicillin and 0.1 ug/ml streptomycin, and 0.5% Calf Serum (CS, Invitrogen #26170-043). The growth media was aspirated off, and the cells were rinsed with 100 ul of starvation media. 95 ul of starvation media was then added to each well. The cells were incubated for 20 hrs at 37 °C, 5% C02.
On Day 3, cells were dosed with test compounds at a final concentration ranging from 2 uM to 2 nM. Immediately after dosing cells with compounds, recombinant human sonic hedgehog (SHh, R&D Systems #1845-SH) was add to a final concentration of 250 ng/ml. A 25 ug vial of SHh was reconstituted with 250 ul PBS/0.1% BSA to give a 100 ng/ul working stock. This working stock was then diluted 1:20 in starvation media. The transfected cells were incubated with compounds and SHh for 20 hrs at 37 °C, 5% C02.
Luciferase assays were conducted on Day 4 using Dual-Glo Luciferase assay system (Promega #E2940) according to Promega's protocol. Briefly, Dual-Glo luciferase reagent was made up and 100 uls were added to each well of the 96 well plate containing media. Plates were shaken at room temperature for 10 minutes, and then read on TopCount (Perkin-Elmer). The luminescence was recorded.

The mark [1] stands for this setting: C3H 10T1/2, 2 uM test compound, read-out: SMO % inhibition at 2 uM.
[2] abbreviates: C3H 10T1/2, 2 μM test compound, read-out: SMO CELL % INHIBITION @ 2 μM.

Regarding `COCCNc1ccc(C(=O)N[C@@H]2CCC[C@H](c3nc4ccccc4[nH]3)C2)cn1` [Example 41, N-((1R,3S)-3-(1H-Benzo-[d]imidazol-2-yl)cyclohexyl)-6-(2-methoxyethylamino)nicotinamide], under setting [1], the inhibition at 2 µM was determined as 87%. Still for that read-out and setting: the same measure for `COCCNc1cc(C(=O)N[C@@H]2CCC[C@H](c3nc4ccccc4[nH]3)C2)ccn1` [Example 42, N-((1R,3S)-3-(1H-Benzo[d]imidazol-2-yl)cyclohexyl)-2-(2-methoxyethylamino)isonicotinamide]: 87%.

On to `COCCNCc1ccc2nc([C@H]3CCC[C@@H](NC(=O)c4ccc5c(c4)OCCO5)C3)[nH]c2c1` [Example 43], for which the inhibition at 2 µM under setting [1] is 99%. As to `CN(C)Cc1ccc2nc([C@H]3CCC[C@@H](NC(=O)c4ccc5c(c4)OCCO5)C3)[nH]c2c1` [Example 44, N-((1R,3S)-3-(5-((Dimethylamino)methyl)-1H-benzo[d]imidazol-2-yl)cyclohexyl)-2,3-dihydrobenzo[b][1,4]dioxine-6-carboxamide], the inhibition at 2 µM under setting [1] amounted to 107%. Still for that read-out and setting: the same measure for `CN1C(=O)COc2ccc(C(=O)N[C@@H]3CCC[C@H](c4nc5ccccc5[nH]4)C3)cc21` [Example 45, N-((1R,3S)-3-(1H-Benzo[d]midazol-2-yl)cyclohexyl)-4-methyl-3-oxo-3,4-dihydro-2H-benzo[b][1,4]oxazine-6-carboxamide]: 108%; for `O=C(Cc1nc2ccc(Cl)cc2[nH]1)NC1CCCC(c2nc3ccccc3[nH]2)C1` (stereo not drawn) [Example 46, N-(3-(1H-Benzo[d]imidazol-2-yl)cyclohexyl)-2-(6-chloro-1H-benzo[d]imidazol-2-yl)acetamide]: 108%; for `O=C(Nc1ccc(C(F)(F)F)cc1)N[C@@H]1CCC[C@H](c2nc3ccccc3[nH]2)C1` [Example 47, 1-((1R,3S)-3-(1H-Benzo[d]imidazol-2-yl)cyclohexyl]-3-(4-(trifluoromethyl)phenyl)urea]: 108%. For `COc1cc(OC)cc(C(=O)NC2CCCC(c3nc4ccccc4[nH]3)C2)c1` (stereo not drawn) [Example 52, N-[3-(1H-benzimidazol-2-yl)cyclohexyl]-3,5-dimethoxybenz-amide HCl], the inhibition at 2 µM under setting [2] was determined as 105%. On the same count and under the same terms, the same measure for `O=C(NC1CCCC(c2nc3ccccc3[nH]2)C1)c1cccnc1` (stereo not drawn) [Example 53, N-[3-(1H-benzimidazol-2-yl)cyclohexyl]-nicotinamide HCl]: 96%.

As for `O=C(CCC1CCCC1)NC1CCCC(c2nc3ccccc3[nH]2)C1` (stereo not drawn) [Example 54, N-[3-(1H-benzimidazol-2-yl)cyclohexyl]-3-cyclopentylpro-panamide HCl], the inhibition at 2 µM under setting [2] turned out to be 67%. Turning to `CC(C)(C)C(=O)NC1CCCC(c2nc3ccccc3[nH]2)C1` (stereo not drawn) [Example 55, N-[3-(1H-benzimidazol-2-yl)cyclohexyl]-2,2-dimethylpropan-amide HCl], the inhibition at 2 µM under setting [2] was 57%. Same read-out and setting: with `O=C(NC1CCCC(c2nc3ccccc3[nH]2)C1)c1ccco1` (stereo not drawn) [Example 56, N-[3-(1H-benzimidazol-2-yl)cyclohexyl]-2-furamide HCl] the figure was 51%; with `O=C(NC1CCCC(c2nc3ccccc3[nH]2)C1)C1CCCCC1` (stereo not drawn) [Example 57, N-(3-(1H-benzo[d]imidazol-2-yl)cyclohexyl) cyclohexanecar-boxamide HCl], 48%; with `O=C(NC1CCCC(c2nc3ccccc3[nH]2)C1)c1ccc2c(c1)OCO2` (stereo not drawn) [Example 58, N-[3-(1H-benzimidazol-2-yl)cyclohexyl]-1,3-benzodioxole-5-carboxamide HCl], 82%. On the same count and under the same terms, with `COc1ccc(C(=O)NC2CCCC(c3nc4ccccc4[nH]3)C2)cc1Cl` (stereo not drawn) [Example 59, N-[3-(1H-benzimidazol-2-yl)cyclohexyl]-3-chloro-4-methoxybenz-amide HCl] the figure was 101%. On the same count and under the same terms, with `O=C(NC1CCCC(c2nc3ccccc3[nH]2)C1)c1ccc2[nH]cnc2c1` (stereo not drawn) [Example 60, N-[3-(1H-benzimidazol-2-yl)cyclohexyl]-1H-benzimidazole-5-carboxamide HCl] the figure was 87%; with `O=C(NC1CCCC(c2nc3ccccc3[nH]2)C1)c1ncc[nH]1` (stereo not drawn) [Example 61, N-[3-(1H-benzimidazol-2-yl)cyclohexyl]-1H-imidazole-2-carboxamide HCl], 52%; with `COc1ccc(C(=O)NC2CCCC(c3nc4ccccc4[nH]3)C2)cc1` (stereo not drawn) [Example 62, N-[3-(1H-benzimidazol-2-yl)cyclohexyl]-4-methoxybenz-amide HCl], 72%. As for `O=C(N[C@@H]1CCC[C@H](c2nc3ccccc3[nH]2)C1)c1ccc2c(c1)OCCO2` [Example 63, N-[(1R,3S)-3-(1H-benzimidazol-2-yl)cyclohexyl]-2,3-dihydro-1,4-benzodioxine-6-carboxamide HCl], the inhibition at 2 µM under setting [2] amounted to 108%.

As to `O=C(N[C@@H]1CCC[C@H](c2nc3ccccc3[nH]2)C1)c1ccc2c(c1)OCCO2` [Example 64, N-[(1R,3S)-3-(1H-benzimidazol-2-yl)cyclohexyl]-2,3-dihydro-1,4-benzodioxine-6-carboxamide triflouroacetate], the inhibition at 2 µM under setting [2] is 108%. The same measure, in the same setting: with `O=C(N[C@@H]1CCC[C@@H](c2nc3ccccc3[nH]2)C1)c1ccc2c(c1)OCCO2` [Example 65, N-[(1R,3R)-3-(1H-benzimidazol-2-yl)cyclohexyl]-2,3-dihydro-1,4-benzodioxine-6-carboxamide HCl] the figure was 96%. Still for that read-out and setting: the same measure for `Cn1c([C@H]2CCC[C@@H](NC(=O)c3ccc4c(c3)OCCO4)C2)nc2ccccc21` [Example 66, N-[(1R,3S)-3-(1-methyl-1H-benzimidazol-2-yl)cyclohexyl]-2,3-dihydro-1,4-benzodioxine-6-carboxamide HCl]: 107%.

With `COc1cc(OC)cc(C(=O)NC2CCCC(c3nc4ccc(C#N)cc4[nH]3)C2)c1` (stereo not drawn) [Example 68, N-[3-(6-cyano-1H-benzimidazol-2-yl)cyclohexyl]-3,5-dimethoxybenz-amide], the inhibition at 2 µM under setting [2] was 89%. Still for that read-out and setting: the same measure for `COc1cc(OC)cc(C(=O)NC2CCCC(c3nc4ccc(OC)cc4[nH]3)C2)c1` (stereo not drawn) [Example 69, 3,5-dimethoxy-N-[3-(6-methoxy-1H-benzimidazol-2-yl)cyclohexyl] benzamide]: 105%; for `COc1cc(OC)cc(C(=O)NC2CCCC(c3nc4ccc(F)cc4[nH]3)C2)c1` (stereo not drawn) [Example 70, N-[3-(6-fluoro-1H-benzimidazol-2-yl)cyclohexyl]-3,5-dimethoxybenz-amide]: 83%. In the case of `O=C(N[C@H]1CCC[C@@H](c2nc3ccccc3[nH]2)C1)c1ccc2c(c1)OCCO2` [Example 72, N-((1S,3R)-3-(1H-benzo[d]imidazol-2-yl)cyclohexyl)-2,3-dihydrobenzo[b] [1,4]dioxine-6-carboxamide HCl], the inhibition at 2 µM under setting [2] is 96%. On the same count and under the same terms, with `Cn1c(C2CCCC(NC(=O)c3ccc4c(c3)OCCO4)C2)nc2cc(CN)ccc21` (stereo not drawn) [Example 73, N-{3-[5-(aminomethyl)-1-methyl-1H-benzimidazol-2-yl]cyclohexyl}-2,3-dihydro-1,4-benzodioxine-6-carboxamide HCl] the figure was 104%. With `COc1cc(OC)cc(C(=O)NC2CCCC(c3nc4cc(C(F)(F)F)ccc4[nH]3)C2)c1` (stereo not drawn) [Example 74, 3,5-dimethoxy-N-{3-[6-(trifluoromethyl)-1H-benzimidazol-2-yl)cyclohexyl}-benzamide HCl], the inhibition at 2 µM under setting [2] was determined as 105%. Still for that read-out and setting: the same measure for `S=C(N[C@@H]1CCC[C@H](c2nc3ccccc3[nH]2)C1)c1ccc2c(c1)OCCO2` [Example 75, N-((1R,3S)-3-(1H-benzo[d]imidazol-2-yl)cyclohexyl)-2,3-dihydrobenzo[b] [1,4]dioxine-6-carbothioamide HCl]: 104%. On the same count and under the same terms, with `COCCn1c([C@H]2CCC[C@@H](NC(=O)c3ccc4c(c3)OCCO4)C2)nc2ccccc21` [Example 76, N-{(1R,3S)-3-[1-(2-methoxyethyl)-1H-benzimidazol-2-yl]cyclohexyl}-2,3-dihydro-1,4-benzodioxine-6-carboxamide] the figure was 101%.
